According to PMC13703928, “Substrate‐Dependent Crosslinking by the Cytochrome P450 From Aminopyruvatide Biosynthesis” (Angewandte Chemie (International Ed. in English), 2026):
Values joined by “and” are separate entries in the source; they are usually repeats but may differ in a detail not shown here. Equal entries are not always repeated. “Also recorded” adds a separate entry of the source.

How the values were obtained:
[1] = target: T1, papain (Carica papaya, UniProt P00784); test: biochemical; conditions: 200 pM enzyme, 10 µM Z-FR-AFC; for IC50: 50 mM sodium phosphate pH 7, 1 mM EDTA, 2 mM DTT, 30 °C, 15 min preincubation at room temperature, fluorescence, meaning of ± and n not given, read-out: IC50, inhibition of papain; for Inhibition of papain at 25 µM (in words): pH 7, 30 °C
T1 construct: purchased Sigma P4762-25MG
T1 sequence (P00784 134-345): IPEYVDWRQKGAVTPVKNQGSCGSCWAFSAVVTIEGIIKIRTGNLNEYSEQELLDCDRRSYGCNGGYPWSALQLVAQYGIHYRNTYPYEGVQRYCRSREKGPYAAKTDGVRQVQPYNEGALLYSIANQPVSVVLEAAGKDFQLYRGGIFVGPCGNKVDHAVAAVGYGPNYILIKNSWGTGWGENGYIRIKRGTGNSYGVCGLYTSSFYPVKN

[2] = target: T2, cathepsin B (Homo sapiens, UniProt P07858); test: biochemical; conditions: 192.4 pM enzyme, 20 µM Z-RR-4MBNA; for Inhibition of cathepsin B at 25 µM (in words): pH 6.0, 30 °C
T2 construct: purchased Athens research and technology 16-12-030102

[3] = target: T3, cathepsin L (Homo sapiens, UniProt P07711); test: biochemical; conditions: 200 pM enzyme, 10 µM Z-FR-AFC; for Inhibition of cathepsin L at 25 µM (in words): pH 5.5, 30 °C
T3 construct: purchased Athens research and technology 16-12-030112
T3 sequence (P07711 114-333): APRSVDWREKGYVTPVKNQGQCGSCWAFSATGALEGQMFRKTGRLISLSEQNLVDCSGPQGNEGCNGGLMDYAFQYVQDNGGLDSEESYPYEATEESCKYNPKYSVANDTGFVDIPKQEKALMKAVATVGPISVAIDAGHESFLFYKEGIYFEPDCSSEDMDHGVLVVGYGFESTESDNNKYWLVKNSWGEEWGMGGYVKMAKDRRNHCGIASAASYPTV

[4] = system: trypsin; assay type: biochemical; conditions: 500 pM enzyme, 10 µM Boc-QAR-AMC, Tris HCl pH 8, 30 °C
[5] = system: chymotrypsin; assay type: biochemical; conditions: 1 nM enzyme, 10 µM Suc-AAPF-AMC, Tris HCl pH 8, 30 °C
[6] = system: main protease from SARS CoV‐2 (M^pro); assay type: biochemical
[7] = system: proteases (trypsin, chymotrypsin, papain, cathepsin B, cathepsin L, ACE, M^pro); assay type: biochemical
[8] = target: T4, angiotensin I‐converting enzyme (ACE) (Oryctolagus cuniculus, UniProt P12822); assay type: biochemical; conditions: 0.4 mU/mL enzyme, 10 µM Abz-FRK(Dnp)-P-OH, pH 7.5, 37 °C
T4 construct: purchased Sigma A6778
T4 sequence (P12822 34-1310): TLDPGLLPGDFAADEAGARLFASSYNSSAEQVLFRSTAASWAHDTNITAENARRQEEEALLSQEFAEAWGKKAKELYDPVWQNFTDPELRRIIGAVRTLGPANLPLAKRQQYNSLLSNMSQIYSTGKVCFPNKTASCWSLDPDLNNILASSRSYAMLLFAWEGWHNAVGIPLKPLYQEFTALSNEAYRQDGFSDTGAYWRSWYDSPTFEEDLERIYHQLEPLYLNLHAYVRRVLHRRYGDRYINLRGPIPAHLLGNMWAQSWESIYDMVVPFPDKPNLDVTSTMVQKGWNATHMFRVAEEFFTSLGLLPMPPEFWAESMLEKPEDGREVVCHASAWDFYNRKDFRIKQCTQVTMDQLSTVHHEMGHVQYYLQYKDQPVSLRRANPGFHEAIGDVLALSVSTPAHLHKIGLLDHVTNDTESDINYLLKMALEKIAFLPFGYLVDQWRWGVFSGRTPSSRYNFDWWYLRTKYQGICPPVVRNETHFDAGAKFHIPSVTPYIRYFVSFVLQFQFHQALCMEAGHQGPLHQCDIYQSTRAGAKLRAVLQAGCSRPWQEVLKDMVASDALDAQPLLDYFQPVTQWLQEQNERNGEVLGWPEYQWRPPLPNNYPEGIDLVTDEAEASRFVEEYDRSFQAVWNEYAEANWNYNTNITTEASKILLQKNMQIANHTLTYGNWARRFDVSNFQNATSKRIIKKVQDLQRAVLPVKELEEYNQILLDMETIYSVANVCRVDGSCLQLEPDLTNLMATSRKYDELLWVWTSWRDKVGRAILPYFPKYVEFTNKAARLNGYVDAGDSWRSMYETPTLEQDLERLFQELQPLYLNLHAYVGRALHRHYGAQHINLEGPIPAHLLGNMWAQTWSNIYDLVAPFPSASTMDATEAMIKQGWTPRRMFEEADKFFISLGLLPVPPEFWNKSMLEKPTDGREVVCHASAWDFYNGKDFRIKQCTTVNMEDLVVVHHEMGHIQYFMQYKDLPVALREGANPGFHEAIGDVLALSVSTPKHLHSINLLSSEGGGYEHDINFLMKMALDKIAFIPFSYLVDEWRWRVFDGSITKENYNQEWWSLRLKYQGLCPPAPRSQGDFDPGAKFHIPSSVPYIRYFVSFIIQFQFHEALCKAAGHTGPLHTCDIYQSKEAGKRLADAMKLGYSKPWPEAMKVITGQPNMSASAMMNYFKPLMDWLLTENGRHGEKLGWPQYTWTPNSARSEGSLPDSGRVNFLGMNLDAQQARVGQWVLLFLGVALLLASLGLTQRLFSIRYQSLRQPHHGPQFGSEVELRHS

[9] = system: ApyO; assay type: biochemical, Burkholderia thailandensis E264; conditions: pH 7.5
[10] = system: ApyO; assay type: biochemical, Burkholderia thailandensis E264; conditions: pH 7.5; remark: listed apart in the source

Compound | Inhibition of cathepsin B at 25 µM (in words) [2] | Inhibition of cathepsin L at 25 µM (in words) [3] | Inhibition of papain at 25 µM (in words) [1] | Inhibition of trypsin at 25 µM (in words) [4] | Inhibition of chymotrypsin at 25 µM (in words) [5] | Inhibition of SARS CoV-2 Mpro at 25 µM (in words) [6] | further results
NCC(=O)N[C@H]1Cc2ccc(O)c(c2)Oc2ccc(cc2)C[C@@H](C(=O)N[C@@H](CC(=O)O)C(=O)O)NC(=O)[C@H](Cc2ccc(O)cc2)NC1=O (single isomer, unassigned) [L7Y isomer-2] |  |  |  |  |  |  | IC50 [1]: 11.7 µM
CC(C)C[C@@H]1NC(=O)[C@@H](NC(=O)CN)Cc2ccc(O)c(c2)-c2cc(ccc2O)C[C@@H](C(=O)N[C@@H](C)C(=O)C(=O)O)NC1=O [desmethylaminopyruvatide A] |  |  |  |  |  |  | IC50 ([2]; 100 mM sodium phosphate pH 6.0, 1.33 mM EDTA, 2 mM DTT, 30 °C, 15 min preincubation at room temperature, fluorescence, readings every 60 s for 1 h, meaning of ± and n not given, read-out: IC50, inhibition of cathepsin B): 0.5 nM; IC50 ([3]; 50 mM sodium acetate pH 5.5, 2.5 mM EDTA, 2.5 mM DTT, 30 °C, 15 min preincubation at room temperature, fluorescence, meaning of ± and n not given, read-out: IC50, inhibition of cathepsin L): 0.6 nM; IC50 [1]: 0.0003 µM; Inhibition of trypsin (in words) ([4]; test concentration not given): No inhibition; Inhibition of chymotrypsin (in words) ([5]; test concentration not given): No inhibition; Inhibition of SARS CoV-2 Mpro (in words) [6]: No inhibition; Protease inhibition, potency in words ([7]; Cys proteases / select proteases): nanomolar activity against Cys‐proteases; also recorded: subnanomolar inhibitory activity against clinically relevant Cys proteases; Specificity (in words) ([7]; cathepsin L, cathepsin B, papain versus trypsin, chymotrypsin, Mpro): specificity towards the papain family of Cys proteases
GWLYD (sidechain bridge or staple) [Y6W] | No inhibition was observed | No inhibition was observed | No inhibition was observed | No inhibition was observed | No inhibition was observed | No inhibition was observed | 
GYWYD (sidechain bridge or staple) [L7W isomer-2] | No inhibition was observed | No inhibition was observed | No inhibition was observed | No inhibition was observed | No inhibition was observed | No inhibition was observed | Inhibition of ACE at 25 µM (in words) [8]: weak inhibition; Inhibition of ACE at 25 µM ([8]; IC50 not determined): ~40%
GYYYD (sidechain bridge or staple) [L7Y isomer-1] | No inhibition was observed | No inhibition was observed | No inhibition was observed | No inhibition was observed | No inhibition was observed | No inhibition was observed | 
N‐terminally acetylated‐GRMGEGYLYD [Ac-ApyAct] |  |  |  |  |  |  | Km [9]: 80 ± 7 µM; kcat [9]: 1.63 and 1.63 ± 0.04
fMGEGYLYD |  |  |  |  |  |  | Modification by ApyO (in words) [10]: did not result in product formation
fMRMGEGYLYD [ApyAct] |  |  |  |  |  |  | Conversion of substrate by ApyO [10]: ~70%
